ChEMBL document CHEMBL1201862, “PubChem BioAssay data set” (2004)
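Growth conditions: 96-well plates. Treatment: test compound, 48 hours, 5 concentrations. Analysis: linear interpolation between bracketing concentrations; unreached endpoints set to highest concentration. Abbreviation: GI50, concentration required for 50% inhibition of growth.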 Active and inactive are the calls of the source. Cut-off read from the data, not from the text of the source: active = GI50 up to about 1.1 µM and inactive = higher.

Experiments:
Assay in all cases: NCI tumour cell line growth inhibition, 48 h
A498 = system: A498
COLO 205 = system: COLO 205
EKVX = system: EKVX
HT-29 = system: HT-29
Hs-578T = system: Hs-578T
IGROV-1 = system: IGROV-1
K562 = system: K562
M14 = system: M14
MDA-MB-231 = system: MDA-MB-231
MDA-MB-435 = system: MDA-MB-435
Malme-3M = system: Malme-3M
NCI-H226 = system: NCI-H226
NCI-H23 = system: NCI-H23
NCI-H460 = system: NCI-H460
RXF 393 = system: RXF 393
SK-MEL-2 = system: SK-MEL-2
SK-OV-3 = system: SK-OV-3
SW-620 = system: SW-620
UACC-257 = system: UACC-257

Row | SMILES | GI50 (A498) | GI50 (COLO 205) | GI50 (EKVX) | GI50 (HT-29) | GI50 (Hs-578T) | GI50 (IGROV-1) | GI50 (K562) | GI50 (M14) | GI50 (MDA-MB-231) | GI50 (MDA-MB-435) | GI50 (Malme-3M) | GI50 (NCI-H226) | GI50 (NCI-H23) | GI50 (NCI-H460) | GI50 (RXF 393) | GI50 (SK-MEL-2) | GI50 (SK-OV-3) | GI50 (SW-620) | GI50 (UACC-257)
1 | OC1(c2ccccc2)CCN(Cc2c[nH]c3ccccc23)CC1 | 92.3 µM (inactive) | 17.5 µM (inactive) | > 100 µM (inactive) | 42.9 µM (inactive) | > 100 µM (inactive) | > 100 µM (inactive) | 33.2 µM (inactive) | 17.5 µM (inactive) | 81.3 µM (inactive) | 37.2 µM (inactive) | 23.2 µM (inactive) | > 100 µM (inactive) | 96.6 µM (inactive) | 49.1 µM (inactive) | 63.2 µM (inactive) | 18 µM (inactive) | > 100 µM (inactive) | > 100 µM (inactive) | 18.3 µM (inactive)
2 | CCN(CC)C(=S)N/N=C(/C)c1cccc(/C(C)=N\NC(=S)N(CC)CC)n1 | 1.89 µM (inactive) | 1.58 µM (inactive) | 2.64 µM (inactive) | 3.52 µM (inactive) | 5.64 µM (inactive) | 1.91 µM (inactive) | 2.67 µM (inactive) | 1.38 µM (inactive) | 1.76 µM (inactive) | 3.35 µM (inactive) | 1.45 µM (inactive) | 1.56 µM (inactive) | 3.44 µM (inactive) | 1.53 µM (inactive) | 2.3 µM (inactive) | 4.68 µM (inactive) | 1.96 µM (inactive) | 0.951 µM (active) | 2.2 µM (inactive)
3 | N#Cc1nc(C#N)c(N)[nH]1 | > 100 µM (inactive) | > 100 µM (inactive) | > 100 µM (inactive) | > 100 µM (inactive) | > 100 µM (inactive) | > 100 µM (inactive) | > 100 µM (inactive) | > 100 µM (inactive) | > 100 µM (inactive) | > 100 µM (inactive) | > 100 µM (inactive) | > 100 µM (inactive) | > 100 µM (inactive) | > 100 µM (inactive) | > 100 µM (inactive) | > 100 µM (inactive) | > 100 µM (inactive) | > 100 µM (inactive) | > 100 µM (inactive)
4 | CC(C)(C)OC(=O)c1ccc(NCC2=CC(=O)C=CC2=O)cc1 | 15.2 µM (inactive) | 2.83 µM (inactive) | 14.8 µM (inactive) | 17.3 µM (inactive) | 15.7 µM (inactive) | 11.6 µM (inactive) | 2.75 µM (inactive) | 6.38 µM (inactive) | 8.34 µM (inactive) | 12.9 µM (inactive) | 2.89 µM (inactive) | 18.2 µM (inactive) | 8.61 µM (inactive) | 23.6 µM (inactive) | 11.4 µM (inactive) | 16.7 µM (inactive) | 17.1 µM (inactive) | 9.91 µM (inactive) | 12.3 µM (inactive)
5 | O=C(NN1CCCCC1)c1cc2cc(CCl)ccc2oc1=O | 75.2 µM (inactive) | 17.9 µM (inactive) | 14.2 µM (inactive) | 14.9 µM (inactive) | 16.3 µM (inactive) | 19.4 µM (inactive) | 16.7 µM (inactive) | 18.8 µM (inactive) | 20.6 µM (inactive) | 18.5 µM (inactive) | 10.5 µM (inactive) | 20.6 µM (inactive) | 16.5 µM (inactive) | 14.9 µM (inactive) | 18.5 µM (inactive) | 11.9 µM (inactive) | 21.9 µM (inactive) | 23.1 µM (inactive) | 21.6 µM (inactive)
6 | COc1cc(/C=N/N=C2NCCCCN2)ccc1O | 96.2 µM (inactive) | > 100 µM (inactive) | > 100 µM (inactive) | 80 µM (inactive) | > 100 µM (inactive) | > 100 µM (inactive) | 58.7 µM (inactive) | > 100 µM (inactive) | > 100 µM (inactive) | > 100 µM (inactive) | > 100 µM (inactive) | > 100 µM (inactive) | > 100 µM (inactive) | > 100 µM (inactive) | > 100 µM (inactive) | > 100 µM (inactive) | > 100 µM (inactive) | > 100 µM (inactive) | > 100 µM (inactive)
7 | COC(=O)C1=C(O)C(C(=O)OC)[C@@]2(O)[C@@H](C(=O)OC)C(c3ccc(OC(=O)/C=C/c4ccccc4)cc3)C[C@@H]1[C@@H]2C(=O)OC (some centres not stated) | 34.8 µM (inactive) | 10.1 µM (inactive) | 12.3 µM (inactive) | 3.66 µM (inactive) | 68.4 µM (inactive) | 8.04 µM (inactive) | 5.79 µM (inactive) | 6.84 µM (inactive) | 14.7 µM (inactive) | 4.83 µM (inactive) | 25.1 µM (inactive) | 22.6 µM (inactive) | 13.3 µM (inactive) | 2.64 µM (inactive) | 3.06 µM (inactive) | 4.32 µM (inactive) | 75.5 µM (inactive) | 6.01 µM (inactive) | 7.23 µM (inactive)
8 | O=[N+]([O-])c1cc2oc(COc3ccccc3)nc2cc1Cl | 33.1 µM (inactive) | 20.6 µM (inactive) | 21.9 µM (inactive) | 32.5 µM (inactive) | 38.6 µM (inactive) | 19.5 µM (inactive) | 40 µM (inactive) | 19.5 µM (inactive) | 30.5 µM (inactive) | 23.6 µM (inactive) | 33.7 µM (inactive) | 17 µM (inactive) | 17.1 µM (inactive) | 21.3 µM (inactive) | 22.1 µM (inactive) | 22.1 µM (inactive) | 24.9 µM (inactive) | 43.2 µM (inactive) | 22.1 µM (inactive)
